Source: patent US20240158446A1, “CYCLIC COMPOUND HAVING SELECTIVE INHIBITORY ACTION ON KRAS OVER HRAS AND NRAS” (CHUGAI SEIYAKU KABUSHIKI KAISHA, priority 2021, published 2024)
Where a SMILES comes first, the peptide text is derived from it. Bridges are numbered along the chain shown (N, C = ends). [ ]: non-standard residue; d: D form. The star is where a group is joined. hPhe(3-Cl-4-CF3) = N[C@@H](CCc1ccc(C(F)(F)F)c(Cl)c1)C(=O)O; NPrPhe(4-CF3) = CCCN[C@@H](Cc1ccc(C(F)(F)F)cc1)C(=O)O; NMeGly(cPent) = CN[C@H](C(=O)O)C1CCCC1; NMeChg = CN[C@H](C(=O)O)C1CCCCC1; NMeI = CC[C@H](C)[C@H](NC)C(=O)O; NMeD = CN[C@@H](CC(=O)O)C(=O)O; Ac4c(3-oxa) = NC1(C(=O)O)COC1; NMeL = CN[C@@H](CC(C)C)C(=O)O; NMeS = CN[C@@H](CO)C(=O)O; Morpholide = C1CN(*)CCO1; Piperidide = C1CCN(*)CC1; Ac5c = NC1(C(=O)O)CCCC1; Ac4c = NC1(C(=O)O)CCC1; Sar = CNCC(=O)O

Key:
[1] = system: human lung cancer strain NCI-H441; assay: cells; conditions: NCI-H441, 96 h, read-out: NCI-H441 IC50 (nM), NCI-H441 cell proliferation, 4 days, CellTiter-Glo;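 note: cell proliferation inhibition after four days measured by CellTiter-Glo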
[2] = molecular target: GDP-bound KRAS wild-type protein (Homo sapiens, UniProt P01116); assay: Binding to KRAS by surface plasmon resonance (SPR), Single Cycle Kinetics; conditions: SPR, Single Cycle Kinetics, GDP-bound KRAS wild-type protein; read-out: KRAS KD
[3] = molecular target: GDP-bound HRAS wild-type protein (Homo sapiens, UniProt P01112); assay: Binding to HRAS by surface plasmon resonance (SPR), Single Cycle Kinetics; conditions: ratio of KD for GDP-bound HRAS wild-type protein to KD for KRAS, SPR
[4] = molecular target: GDP-bound NRAS wild-type protein (Homo sapiens, UniProt P01111); assay: Binding to NRAS by surface plasmon resonance (SPR), Single Cycle Kinetics; conditions: ratio of KD for GDP-bound NRAS wild-type protein to KD for KRAS, SPR
Chain of GDP-bound NRAS wild-type protein (P01111 whole entry): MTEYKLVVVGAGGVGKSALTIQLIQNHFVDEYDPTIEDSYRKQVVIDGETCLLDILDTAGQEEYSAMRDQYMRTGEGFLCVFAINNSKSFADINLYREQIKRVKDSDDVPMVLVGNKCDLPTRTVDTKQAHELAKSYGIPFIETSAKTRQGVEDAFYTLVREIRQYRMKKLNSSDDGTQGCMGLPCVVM

Chain of GDP-bound HRAS wild-type protein (P01112 whole entry): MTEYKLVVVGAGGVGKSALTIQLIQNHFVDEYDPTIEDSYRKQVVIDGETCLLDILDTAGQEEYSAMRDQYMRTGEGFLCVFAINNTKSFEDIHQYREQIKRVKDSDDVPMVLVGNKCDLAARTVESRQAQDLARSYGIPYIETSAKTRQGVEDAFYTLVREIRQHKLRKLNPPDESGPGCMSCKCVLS
Chain of GDP-bound KRAS wild-type protein (P01116 whole entry): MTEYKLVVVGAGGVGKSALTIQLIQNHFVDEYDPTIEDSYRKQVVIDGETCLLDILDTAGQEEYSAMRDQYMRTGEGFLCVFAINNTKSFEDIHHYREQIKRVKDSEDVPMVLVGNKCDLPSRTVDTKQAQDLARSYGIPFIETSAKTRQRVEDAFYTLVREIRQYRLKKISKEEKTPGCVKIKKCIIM

| IC50 [1] [nM] | Kd [2] [nM] | Compound | HRAS/KRAS (KD ratio) [3] | NRAS/KRAS (KD ratio) [4] |
| --- | --- | --- | --- | --- |
| 6.3 | 0.23 | CCO[C@@H]1C[C@H]2C(=O)NC3(CC(C)(C)C3)C(=O)N(C)[C@@H](C3CCCC3)C(=O)N(C)[C@H](C(=O)N(C)CC)CC(=O)N(C)[C@@H](CC(C)C)C(=O)N[C@@H]([C@@H](C)OCC)C(=O)N(C)CC(=O)N(C)[C@H]3C/C=C\CCN(C3=O)[C@@H](Cc3ccc(C(F)(F)F)cc3)C(=O)N(C)CC(=O)N[C@@H](CCc3cc(F)c(C(F)(F)F)c(F)c3)C(=O)N2C1 [PP1919] | A (a compound having 10 or more and less than 20 is denoted as A) | A (a compound having 10 or more and less than 20 is denoted as A) |
| 32.4 | 0.31 | CCCN1C(=O)CN(C)C(=O)CN(C)C(=O)[C@H]([C@@H](C)CC)NC(=O)[C@H](CC(C)C)N(C)C(=O)C[C@@H](C(=O)N2CCOCC2)N(C)C(=O)[C@H](C2CCCC2)N(C)C(=O)C2(CCCC2)NC(=O)[C@H](COC)N(C)C(=O)[C@H](CCc2ccc(C(F)(F)F)c(Cl)c2)NC(=O)CN(C)C(=O)[C@@H]1Cc1ccc(C(F)(F)F)cc1 [PP1920] ([NMeL]I[Sar][Sar][NPrPhe(4-CF3)][Sar][hPhe(3-Cl-4-CF3)][NMeS](Me)[Ac5c][NMeGly(cPent)][NMeD]-Morpholide; lactam N-11) | C (A compound having a KD ratio of 0.1 or more and less than 3 is denoted as C) | B (a compound having 3 or more and less than 10 is denoted as B) |
| 7.8 | 0.055 | CCCO[C@H](C)[C@@H]1NC(=O)[C@H](CC(C)C)N(C)C(=O)C[C@@H](C(=O)N(C)C)N(C)C(=O)[C@H](C2CCCC2)N(C)C(=O)C2(CC(C)(C)C2)NC(=O)[C@@H]2C[C@@H](OCC)CN2C(=O)[C@H](CCc2cc(F)c(C(F)(F)F)c(F)c2)NC(=O)CN(C)C(=O)[C@H](Cc2ccc(C(F)(F)F)cc2)N2CC/C=C\C[C@@H](C2=O)N(C)C(=O)CN(C)C1=O [PP1921] | A (a compound having 10 or more and less than 20 is denoted as A) | A (a compound having 10 or more and less than 20 is denoted as A) |
| 44.1 | 0.23 | CCCN1C(=O)CN(C)C(=O)CN(C)C(=O)[C@H]([C@@H](C)CC)NC(=O)[C@H](CC(C)C)N(C)C(=O)C[C@@H](C(=O)N2CCOCC2)N(C)C(=O)[C@H](C2CCCC2)N(C)C(=O)C2(COC2)NC(=O)[C@@H]2CCCN2C(=O)[C@H](CCc2ccc(C(F)(F)F)c(Cl)c2)NC(=O)CN(C)C(=O)[C@@H]1Cc1ccc(C(F)(F)F)cc1 [PP1922] ([NMeL]I[Sar][Sar][NPrPhe(4-CF3)][Sar][hPhe(3-Cl-4-CF3)]P[Ac4c(3-oxa)][NMeGly(cPent)][NMeD]-Morpholide; lactam N-11) | C (A compound having a KD ratio of 0.1 or more and less than 3 is denoted as C) | B (a compound having 3 or more and less than 10 is denoted as B) |
| 68 | 3.4 | CCCN(C)C(=O)[C@@H]1CC(=O)N(C)[C@@H](CC(C)C)C(=O)N[C@@H](C2CCOCC2)C(=O)N(C)CC(=O)N(C)[C@H]2C/C=C\CCN(C2=O)[C@@H](Cc2ccc(C(F)(F)F)cc2)C(=O)N(C)CC(=O)N[C@@H](CCc2cc(F)c(C(F)(F)F)c(F)c2)C(=O)N2C[C@H](OCC)C[C@H]2C(=O)NC2(CC(C)(C)C2)C(=O)N(C)[C@@H](C2CCCC2)C(=O)N1C [PP1923] | A (a compound having 10 or more and less than 20 is denoted as A) | A (a compound having 10 or more and less than 20 is denoted as A) |
| 9.7 | 0.23 | CCC[C@H]1C(=O)N[C@@H]([C@@H](C)CC)C(=O)N2CC[C@H]2C(=O)N(C)[C@H]2C/C=C\CCN(C2=O)[C@@H](Cc2ccc(C(F)(F)F)cc2)C(=O)N(C)CC(=O)N[C@@H](CCc2cc(F)c(C(F)(F)F)c(F)c2)C(=O)N2C[C@H](OCC)C[C@H]2C(=O)NC2(CC(C)(C)C2)C(=O)N(C)[C@@H](C2CCCC2)C(=O)N(C)[C@H](C(=O)N(C)C)CC(=O)N1C [PP1925] | A (a compound having 10 or more and less than 20 is denoted as A) | A (a compound having 10 or more and less than 20 is denoted as A) |
| 17.4 | 0.36 | CCCN1C(=O)CN(C)C(=O)CN(C)C(=O)[C@H]([C@@H](C)CC)NC(=O)[C@H](CC(C)C)N(C)C(=O)C[C@@H](C(=O)N2CCOCC2)N(C)C(=O)[C@H]([C@@H](C)CC)N(C)C(=O)C2(CCCC2)NC(=O)[C@@H]2CCCN2C(=O)[C@H](CCc2ccc(C(F)(F)F)c(Cl)c2)NC(=O)CN(C)C(=O)[C@@H]1Cc1ccc(C(F)(F)F)cc1 [PP1926] ([NMeL]I[Sar][Sar][NPrPhe(4-CF3)][Sar][hPhe(3-Cl-4-CF3)]P[Ac5c][NMeI][NMeD]-Morpholide; lactam N-11) | B (a compound having 3 or more and less than 10 is denoted as B) | B (a compound having 3 or more and less than 10 is denoted as B) |
| 23.5 | 0.85 | CCC[C@H]1C(=O)N[C@@H]([C@@H](C)CC)C(=O)N[C@@H](C)C(=O)N(C)[C@H]2C/C=C\CCN(C2=O)[C@@H](Cc2ccc(C(F)(F)F)cc2)C(=O)N(C)CC(=O)N[C@@H](CCc2cc(F)c(C(F)(F)F)c(F)c2)C(=O)N2C[C@H](OCC)C[C@H]2C(=O)NC2(CC(C)(C)C2)C(=O)N(C)[C@@H](C2CCCC2)C(=O)N(C)[C@H](C(=O)N(C)C)CC(=O)N1C [PP1927] | A (a compound having 10 or more and less than 20 is denoted as A) | A (a compound having 10 or more and less than 20 is denoted as A) |
| 18.4 | 0.25 | CCCN1C(=O)CN(C)C(=O)CN(C)C(=O)[C@H]([C@@H](C)CC)NC(=O)[C@H](CC(C)C)N(C)C(=O)C[C@@H](C(=O)N2CCOCC2)N(C)C(=O)[C@H](C2CCCCC2)N(C)C(=O)C2(CCC2)NC(=O)[C@@H]2CCCN2C(=O)[C@H](CCc2ccc(C(F)(F)F)c(Cl)c2)NC(=O)CN(C)C(=O)[C@@H]1Cc1ccc(C(F)(F)F)cc1 [PP1928] ([NMeL]I[Sar][Sar][NPrPhe(4-CF3)][Sar][hPhe(3-Cl-4-CF3)]P[Ac4c][NMeChg][NMeD]-Morpholide; lactam N-11) | B (a compound having 3 or more and less than 10 is denoted as B) | B (a compound having 3 or more and less than 10 is denoted as B) |
| 9.5 | 0.12 | CCO[C@@H]1C[C@H]2C(=O)NC3(CC(C)(C)C3)C(=O)N(C)[C@@H](C3CCCC3)C(=O)N(C)[C@H](C(=O)N(C)C)CC(=O)N(C)[C@@H](CC(C)C)C(=O)N[C@@H]([C@@H](C)CC)C(=O)N(C)CC(=O)N(C)[C@H]3C/C=C\CCN(C3=O)[C@@H](Cc3ccc(C(F)(F)F)cc3)C(=O)N(C)CC(=O)N[C@@H](CCc3ccc(C(F)(F)F)c(F)c3)C(=O)N2C1 [PP1931] | B (a compound having 3 or more and less than 10 is denoted as B) | A (a compound having 10 or more and less than 20 is denoted as A) |
| 13.1 | 0.15 | CCC[C@H]1C(=O)N[C@@H]([C@@H](C)CC)C(=O)N(C)CC(=O)N(C)[C@H]2C/C=C\CCN(C2=O)[C@@H](Cc2ccc(C(F)(F)F)cc2)C(=O)N(C)CC(=O)N[C@@H](CCc2ccc(Cl)c(Cl)c2)C(=O)N2C[C@H](OCC)C[C@H]2C(=O)NC2(CC(C)(C)C2)C(=O)N(C)[C@@H](C2CCCC2)C(=O)N(C)[C@H](C(=O)N(C)C)CC(=O)N1C [PP1932] | A (a compound having 10 or more and less than 20 is denoted as A) | A (a compound having 10 or more and less than 20 is denoted as A) |
| 68.5 | 0.72 | CCC[C@H]1C(=O)N[C@@H]([C@@H](C)CC)C(=O)N(C)CC(=O)N(C)[C@H]2C/C=C\CCN(C2=O)[C@@H](Cc2ccc(C(F)(F)F)cc2)C(=O)N(C)CC(=O)N[C@@H](CCc2cc(F)c(C(F)(F)F)c(F)c2)C(=O)N(C)[C@@H](C)C(=O)NC2(CC(C)(C)C2)C(=O)N(C)[C@@H](C2CCCC2)C(=O)N(C)[C@H](C(=O)N(C)C)CC(=O)N1C [PP1934] | A (a compound having 10 or more and less than 20 is denoted as A) | A (a compound having 10 or more and less than 20 is denoted as A) |
| 13.1 | 0.46 | CC[C@H](C)[C@@H]1NC(=O)[C@H](CC)N(C)C(=O)C[C@@H](C(=O)N(C)C)N(C)C(=O)[C@H](C2CCCC2)N(C)C(=O)C2(CC(C)(C)C2)NC(=O)[C@H](CC)N(C)C(=O)[C@H](CCc2cc(F)c(C(F)(F)F)c(F)c2)NC(=O)CN(C)C(=O)[C@H](Cc2ccc(C(F)(F)F)cc2)N2CC/C=C\C[C@@H](C2=O)N(C)C(=O)CN(C)C1=O [PP1935] | A (a compound having 10 or more and less than 20 is denoted as A) | A (a compound having 10 or more and less than 20 is denoted as A) |

| Compound | IC50 [1] [nM] | Kd [2] [nM] | HRAS/KRAS (KD ratio) [3] | NRAS/KRAS (KD ratio) [4] |
| --- | --- | --- | --- | --- |
| CCCN1C(=O)CN(C)C(=O)CN(C)C(=O)[C@H]([C@@H](C)CC)NC(=O)[C@H](CC(C)C)N(C)C(=O)C[C@@H](C(=O)N2CCCCC2)N(C)C(=O)[C@H](C2CCCC2)N(C)C(=O)C2(CCC2)NC(=O)[C@@H]2CCCN2C(=O)[C@H](CCc2ccc(C(F)(F)F)c(Cl)c2)NC(=O)CN(C)C(=O)[C@@H]1Cc1ccc(C(F)(F)F)cc1 [PP1930] ([NMeL]I[Sar][Sar][NPrPhe(4-CF3)][Sar][hPhe(3-Cl-4-CF3)]P[Ac4c][NMeGly(cPent)][NMeD]-Piperidide; lactam N-11) | 7 | 0.23 | C (A compound having a KD ratio of 0.1 or more and less than 3 is denoted as C) | B (a compound having 3 or more and less than 10 is denoted as B) |
